Where only a bound is given, the exact number is not on record here.

This assay has as its system HEK293 cells. Briefly: HEK293 VLCFA-LPC IC50 determination (13C-labeled C26:0 LPC by UHPLC/MS). Format: cell-based, human. To be noted: Homo sapiens, HEK293, HEK293 cells; average of one or more replicates; read-out: Average HEK293 IC50. Here is the method: HEK293 cells were treated with compounds, such as those listed in Tables A-E of Example 1, using the representative manual protocols described below. The protocols below were also adapted to a semi-automated protocol using standard methods in the art.
Cell Culture Growth Conditions:
HEK293 cells were maintained in FreeStyle F17 media (Gibco # A13835) supplemented with PenStrep (1%, Gibco #15070-063), Glutamax (2%, Gibco #35050-061), and Pluronic (0.1%, Gibco #24040-032) (“supplemented media”). Suspension cultures were grown in disposable Erlenmeyer flasks at about 120 rpm, 37° C., 5% CO2, and 80% humidity. Cell densities were kept between about 0.5 and 3 million cells per mL, in about 50-200 mL per flask.
Treatment of Cells with Compounds Provided Herein:
The cells were treated with compounds using either a total of 900 uL cell media volume (high-volume assay) or a total of 200 uL cell media volume (low-volume assay). In the high volume assay, 450 μL of supplemented media plus 13C-acetate (1.0 mg/mL, Sigma Aldrich #282014) were added to 0.5 μL of a compound (such as those in Tables A-E) in DMSO in a polypropylene v-bottom plate (Costar #3363) in 1 of 3 dilution schemes. The contents of each well were mixed and transferred to a sterile polypropylene deep-well v-bottom plate (Costar #3960). 450 μL of cultured HEK293 cells in supplemented media at a density of 1.0 million cells/mL was added to each well. In the low volume assay, 100 μL of supplemented media plus 13C-acetate (1.0 mg/mL, Sigma Aldrich #282014) were added to either 0.1 μL or 1.0 uL of a compound (such as those in Tables A-E) in DMSO in a polypropylene v-bottom plate (Costar #3363) in 1 of 3 dilution schemes. 100 μL of cultured HEK293 cells in supplemented media at a density of 1.0 million cells/mL was added to each well. The high volume and low volume plates were sealed with either AirPore Tape Sheets (Qiagen #19571) or Duetz plate covers to control evaporation and placed into a shaking incubator at 225 rpm, 37° C., 5% CO2, and 80% humidity for 48 hours. For both the high and low volume assays the 3 dilution schemes used were as follows:
Following incubation, treated cells were harvested by centrifugation at 1690×g for 10 minutes. In the high volume assay 200 uL treated cells were transferred to a polypropylene v-bottom plate (Costar #3363) prior to centrifugation. In the low volume assay the incubation plate was centrifuged directly, without a transfer step. The supernatant was then discarded and the analytes were extracted using 1 of 2 different extraction schemes. In the first scheme, the cell pellet was visibly broken up by mixing the cell pellet up and down in 100 μL of hexane/isopropanol (60:40) 20 times. The resulting mixture was transferred to a 0.45 μm Durapore membrane (Millipore #MSH VN4510) atop a polypropylene v-bottom plate (Costar #3363) and filtered by centrifugation at 1690×g for 5 minutes. 120 μL of n-butanol containing 10 nM C13:0 lysophosphatidylcholine was added to the filtrate as an injection control standard, then the entire volume was transferred to a new Durapore membrane/v-bottom plate. In the second scheme, the cell pellet was visibly broken up by mixing the cell pellet up and down in 180 μL of methanol containing 10 nM C13:0 lysophosphatidylcholine 20 times. The resulting mixture was transferred to a 0.45 μm Durapore membrane (Millipore #MSH VN4510) atop a polypropylene v-bottom plate and filtered by centrifugation at 1690×g for 5 minutes. In both schemes, the plates were then sealed with pierceable capmats (Micronic MP53017) and stored at −20 OC until analyzed.
UHPLC/Mass Spectrometry Readout:
The filtered organic extraction was analyzed with a 1290 Agilent Infinity Series UHPLC coupled to an ABI Sciex QTrap 6500 mass spectrometer. […]
As a reminder, the IC50 is the concentration at which inhibition is half-maximal. With `C[C@H](C(=O)Nc1ccn(-c2ccccc2)n1)c1ccccc1` [Compound 20, (2S)-2-phenyl-N-(1-phenylpyrazol-3-yl)propanamide], the IC50 was determined as 26 nM.

Consider `O=C(Nc1ccn(-c2ccccc2)n1)C1(c2cccc(F)c2)CC1` [Compound 21, 1-(3-fluorophenyl)-N-(1-phenylpyrazol-3-yl)cyclopropanecarboxamide], for which the concentration for half-maximal inhibition (IC50) turned out to be 150 nM. For `O=C(Nc1ccn(-c2ccccc2)n1)C1(c2ccccc2F)CC1` [Compound 22, 1-(2-fluorophenyl)-N-(1-phenylpyrazol-3-yl)cyclopropanecarboxamide] the value was 12 nM. The figure for `O=C(Nc1ccn(-c2ccccc2)n1)C1(c2ccc(Cl)cc2)CC1` [Compound 23, 1-(4-chlorophenyl)-N-(1-phenylpyrazol-3-yl)cyclopropanecarboxamide] is 830 nM; for `O=C(Nc1ccn(-c2ccccc2)n1)C1(c2ccccc2Cl)CC1` [Compound 24, 1-(2-chlorophenyl)-N-(1-phenylpyrazol-3-yl)cyclopropanecarboxamide] it is 41 nM.

`COc1ccc(C2(C(=O)Nc3ccn(-c4ccccc4)n3)CC2)cc1` [Compound 25, 1-(4-methoxyphenyl)-N-(1-phenylpyrazol-3-yl)cyclopropanecarboxamide]: the half-inhibitory concentration (IC50) was 3600 nM. On to `COc1cccc(C2(C(=O)Nc3ccn(-c4ccccc4)n3)CC2)c1` [Compound 26, 1-(3-methoxyphenyl)-N-(1-phenylpyrazol-3-yl)cyclopropanecarboxamide], for which the IC50 worked out at 270 nM. The figure for `C[C@@H](C(=O)Nc1ccn(-c2ccccc2)n1)c1ccccc1` [Compound 27, (2R)-2-phenyl-N-(1-phenylpyrazol-3-yl)propanamide] is 210 nM; for `CC[C@@H](C(=O)Nc1ccn(-c2ccccc2)n1)c1ccccc1` [Compound 28, (2R)-2-phenyl-N-(1-phenylpyrazol-3-yl)butanamide] it is 580 nM. The figure for `O=C(Nc1ccn(-c2ccccc2)n1)C1(c2cc(F)cc(C(F)(F)F)c2)CC1` [Compound 29, 1-[3-fluoro-5-(trifluoromethyl)phenyl]-N-(1-phenylpyrazol-3-yl)cyclopropanecarboxamide] is 1900 nM; for `CC(C)(C(=O)Nc1ccn(-c2ccccc2)n1)c1ccccc1` [Compound 30, 2-methyl-2-phenyl-N-(1-phenyl-1H-pyrazol-3-yl)propanamide] it is 320 nM. The figure for `CC(C)C(C(=O)Nc1ccn(-c2ccccc2)n1)c1ccccc1` (stereo not shown) [Compound 31, 3-methyl-2-phenyl-N-(1-phenylpyrazol-3-yl)butanamide] is > 2000 nM. As for `Cc1cccc(C2(C(=O)Nc3ccn(-c4ccccc4)n3)CC2)c1` [Compound 32, 1-(m-tolyl)-N-(1-phenylpyrazol-3-yl)cyclopropanecarboxamide], the IC50 came out at 650 nM. For the molecule `CCOc1ccc(C2(C(=O)Nc3ccn(-c4ccccc4)n3)CC2)cc1` [Compound 33, 1-(4-ethoxyphenyl)-N-(1-phenylpyrazol-3-yl)cyclopropanecarboxamide], the 50% inhibitory concentration (IC50) was 990 nM. The figure for `O=C(Nc1ccn(-c2ccccc2)n1)C1(c2ccccc2)CCCC1` [Compound 34, 1-phenyl-N-(1-phenylpyrazol-3-yl)cyclopentanecarboxamide] is 2100 nM; for `O=C(Nc1ccn(-c2ccccc2)n1)C1(c2ccccc2)CCC1` [Compound 35, 1-phenyl-N-(1-phenylpyrazol-3-yl)cyclobutanecarboxamide] it is 330 nM.

For `Cc1cc(C)cc(C2(C(=O)Nc3ccn(-c4ccccc4)n3)CC2)c1` [Compound 36, 1-(3,5-dimethylphenyl)-N-(1-phenylpyrazol-3-yl)cyclopropanecarboxamide], the IC50 was > 5000 nM. For `O=C(Cc1cccs1)Nc1ccn(-c2ccccc2)n1` [Compound 37, N-(1-phenylpyrazol-3-yl)-2-(2-thienyl)acetamide] the value was 64 nM. The figure for `O=C(Cc1ccncc1)Nc1ccn(-c2ccccc2)n1` [Compound 38, N-(1-phenylpyrazol-3-yl)-2-(4-pyridyl)acetamide] is > 5000 nM; for `O=C(Cc1cccnc1)Nc1ccn(-c2ccccc2)n1` [Compound 39, N-(1-phenylpyrazol-3-yl)-2-(3-pyridyl)acetamide] it is > 5000 nM; for `O=C(Cc1ccccn1)Nc1ccn(-c2ccccc2)n1` [Compound 40, N-(1-phenylpyrazol-3-yl)-2-(2-pyridyl)acetamide] it is 1500 nM. For `O=C(Cc1ccccc1)Nc1ccn(-c2ccccc2)n1` [Compound 41, 2-phenyl-N-(1-phenylpyrazol-3-yl)acetamide], the IC50 was found to be 73 nM. The figure for `Cc1ccc(CC(=O)Nc2ccn(-c3ccccc3)n2)cc1` [Compound 42, N-(1-phenylpyrazol-3-yl)-2-(p-tolyl)acetamide] is 710 nM; for `Cc1cccc(CC(=O)Nc2ccn(-c3ccccc3)n2)c1` [Compound 43, 2-(m-tolyl)-N-(1-phenylpyrazol-3-yl)acetamide] it is 1900 nM. The figure for `Cc1ccccc1CC(=O)Nc1ccn(-c2ccccc2)n1` [Compound 44, 2-(o-tolyl)-N-(1-phenylpyrazol-3-yl)acetamide] is 240 nM.

Turning to `COc1ccc(CC(=O)Nc2ccn(-c3ccccc3)n2)cc1` [Compound 45, 2-(4-methoxyphenyl)-N-(1-phenylpyrazol-3-yl)acetamide], the IC50 is > 5000 nM. For `COc1cccc(CC(=O)Nc2ccn(-c3ccccc3)n2)c1` [Compound 46, 2-(3-methoxyphenyl)-N-(1-phenylpyrazol-3-yl)acetamide] the value was > 5000 nM; for `CCOc1ccc(CC(=O)Nc2ccn(-c3ccccc3)n2)cc1` [Compound 47, 2-(4-ethoxyphenyl)-N-(1-phenylpyrazol-3-yl)acetamide], > 5000 nM; for `O=C(Cc1cccc(F)c1)Nc1ccn(-c2ccccc2)n1` [Compound 49, 2-(3-fluorophenyl)-N-(1-phenylpyrazol-3-yl)acetamide], 1900 nM. With `O=C(Cc1cccc(Cl)c1)Nc1ccn(-c2ccccc2)n1` [Compound 50, 2-(3-chlorophenyl)-N-(1-phenylpyrazol-3-yl)acetamide], the 50% inhibitory concentration (IC50) was > 5000 nM. For `O=C(Cc1cccc(C(F)(F)F)c1)Nc1ccn(-c2ccccc2)n1` [Compound 51, N-(1-phenylpyrazol-3-yl)-2-[3-(trifluoromethyl)phenyl]acetamide] the value was > 2000 nM; for `O=C(Cc1ccccc1C(F)(F)F)Nc1ccn(-c2ccccc2)n1` [Compound 52, N-(1-phenylpyrazol-3-yl)-2-[2-(trifluoromethyl)phenyl]acetamide], 1100 nM; for `O=C(Cc1ccc(OC(F)(F)F)cc1)Nc1ccn(-c2ccccc2)n1` [Compound 53, N-(1-phenylpyrazol-3-yl)-2-[4-(trifluoromethoxy)phenyl]acetamide], > 5000 nM. The figure for `O=C(Cc1ccccc1OC(F)(F)F)Nc1ccn(-c2ccccc2)n1` [Compound 54, N-(1-phenylpyrazol-3-yl)-2-[2-(trifluoromethoxy)phenyl]acetamide] is > 5000 nM; for `Cc1ccc(C)c(CC(=O)Nc2ccn(-c3ccccc3)n2)c1` [Compound 55, 2-(2,5-dimethylphenyl)-N-(1-phenylpyrazol-3-yl)acetamide] it is > 5000 nM. For `O=C(Cc1ccc(O)c(F)c1)Nc1ccn(-c2ccccc2)n1` [Compound 56, 2-(3-fluoro-4-hydroxy-phenyl)-N-(1-phenylpyrazol-3-yl)acetamide] the value was > 5000 nM; for `O=C(Cc1ccc(F)c(F)c1)Nc1ccn(-c2ccccc2)n1` [Compound 57, 2-(3,4-difluorophenyl)-N-(1-phenylpyrazol-3-yl)acetamide], > 5000 nM.
